Here are results for 23 compounds from patent publication US12157730B2, “Heteroaryl derivative, method for producing same, and pharmaceutical composition comprising same as effective component” (VORONOI INC., priority 2019, dated 2024).

Structures are written as SMILES.

This experiment addresses T1, Ba/F3 cell EGFR Exon20 ins NPH (Homo sapiens, UniProt P00533, INS773NPH).
T1 construct: expressed in transfected cells; host or cells: Ba/F3
Kind of experiment: Ba/F3 cell proliferation suppression, EGFR Exon20 ins NPH. In kind it is cell-based. The settings on record: GI50 class; Ba/F3 cell line with NPH inserted at Exon20 of EGFR; 72 hours. The method, boiled down:
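After 72 h compound exposure (twelve 3-fold steps, 0.3 nM–50 um final), live cells were measured by CellTiter-Glo luminescence and growth expressed as % of control to derive GI50. Cells were seeded at 3000–5000 per well a day earlier; Ba/F3 medium contained IL-3; three repeats.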
With `C=CC(=O)Nc1cc(Nc2cc(N3OCC[C@@H]3c3ccc(Cl)c(Cl)c3F)ncn2)c(OC)cc1N1CCC(N2C[C@@H](C)O[C@@H](C)C2)CC1` [compound 773, N-(5-((6-((R)-3-(3,4-dichloro-2-fluorophenyl)isoxazolidine-2-yl)pyrimidine-4-yl)amino)-2-(4-((2S,6R)-2,6-dimethylmorpholino)piperidine-1-yl)-4-methoxyphenyl) acrylamide], the “Ba/F3 (NPH) Activity” value was “B (50 nM ≤ GI50 < 500 nM)”.
Take `C=CC(=O)Nc1cc(Nc2cc(N3OCC[C@@H]3c3ccc(Cl)c(Cl)c3)ncn2)c(OC)cc1N1CCN(C(C)C)CC1` [compound 680, N-(5-((6-((R)-3-(3,4-dichlorophenyl)isoxazolidine-2-yl)pyrimidine-4-yl)amino)-2-(4-isopropylpiperazine-1-yl)-4-methoxyphenyl) acrylamide]: the “Ba/F3 (NPH) Activity” value is recorded as “A (GI50 < 50 nM)”.
For the compound `C=CC(=O)Nc1cc(Nc2cc(N3OCC[C@@H]3c3ccc(F)c(Cl)c3)ncn2)c(OC)cc1N1CCC(N2C[C@H]3C[C@@H]2CO3)CC1` [Example 257, N-(2-(4-((1R,4R)-2-oxa-5-azabicyclo[2.2.1]heptane-5-yl)piperidine-1-yl)-5-((6-((R)-3-(3-chloro-4-fluorophenyl)isoxazolidine-2-yl)pyrimidine-4-yl)amino)-4-methoxyphenyl) acrylamide], the “Ba/F3 (NPH) Activity” value is “A (GI50 < 50 nM)”.
Turning to `C=CC(=O)Nc1cc(Nc2cc(N3OCC[C@@H]3c3cccc(Cl)c3C)ncn2)c(OC)cc1N1CCN(CC)CC1` [compound 585, N-(5-((6-((R)-3-(3-chloro-2-methylphenyl)isoxazolidine-2-yl)pyrimidine-4-yl)amino)-2-(4-ethylpiperazine-1-yl)-4-methoxyphenyl) acrylamide], the “Ba/F3 (NPH) Activity” value was “A (GI50 < 50 nM)”.
For the compound `C=CC(=O)Nc1cc(Nc2cc(N3OCC[C@@H]3c3cccc(C)c3F)ncn2)c(OC)cc1N1CCC(N2CC[C@@H](N(C)C)C2)CC1` [compound 418, N-(2-(4-((R)-3-(dimethylamino)pyrolidine-1-yl)piperidine-1-yl)-5-((6-((R)-3-(2-fluoro-3-methylphenyl)isoxazolidine-2-yl)pyrimidine-4-yl)amino)-4-methoxyphenyl) acrylamide], the “Ba/F3 (NPH) Activity” value is “A (GI50 < 50 nM)”.
As to `C=CC(=O)Nc1cc(Nc2cc(N3OCC[C@@H]3c3cccc(F)c3F)ncn2)c(OC)cc1N1CCN(C)[C@H](C)C1` [compound 884, N-(5-((6-((R)-3-(2,3-difluorophenyl)isoxazolidine-2-yl)pyrimidine-4-yl)amino)-2-((R)-3,4-dimethylpiperazine-1-yl)-4-methoxyphenyl) acrylamide], the “Ba/F3 (NPH) Activity” value is on record as “A (GI50 < 50 nM)”.
Consider `C=CC(=O)Nc1cc(Nc2cc(N3OCC[C@@H]3c3ccc(C)nc3)ncn2)c(OC)cc1N1CCC(N2CCC(N3CCOCC3)CC2)CC1` [Example 235, N-(4-methoxy-5-((6-((R)-3-(6-methylpyridine-3-yl)isoxazolidine-2-yl)pyrimidine-4-yl)amino)-2-(4-morpholino-[1,4'-bipiperidine]-1'-yl)phenyl)acrylamide], for which the “Ba/F3 (NPH) Activity” value is reported as “B (50 nM ≤ GI50 < 500 nM)”.
As to `C=CC(=O)Nc1cc(Nc2cc(N3OCC[C@@H]3c3ccc(Cl)c(Cl)c3)ncn2)c(OC)cc1N1CCN(C(C)=O)CC1` [compound 675, N-(2-(4-acetylpiperazine-1-yl)-5-((6-((R)-3-(3,4-dichlorophenyl)isoxazolidine-2-yl)pyrimidine-4-yl)amino)-4-methoxyphenyl) acrylamide], the “Ba/F3 (NPH) Activity” value is “A (GI50 < 50 nM)”.
For the compound `C=CC(=O)Nc1cc(Nc2cc(N3OCC[C@@H]3c3cc(F)cc(F)c3)ncn2)c(OC)cc1N1CCC(N2CCN(C3CC3)[C@H](C)C2)CC1` [Example 109, N-(2-(4-((R)-4-cyclopropyl-3-methylpiperazine-1-yl)piperidine-1-yl)-5-((6-((R)-3-(3,5-difluorophenyl)isoxazolidine-2-yl)pyrimidine-4-yl)amino)-4-methoxyphenyl) acrylamide], the “Ba/F3 (NPH) Activity” value was “A (GI50 < 50 nM)”.
As to `C=CC(=O)Nc1cc(Nc2cc(N3OCC[C@@H]3c3ccc4ccccc4c3)ncn2)c(OC)cc1N1CCC(N2CCN(C)CC2)CC1` [compound 554, N-(4-methoxy-2-(4-(4-methylpiperazine-1-yl)piperidine-1-yl)-5-((6-((R)-3-(naphthalene-2-yl)isoxazolidine-2-yl)pyrimidine-4-yl)amino)phenyl)acrylamide], the “Ba/F3 (NPH) Activity” value is reported as “B (50 nM ≤ GI50 < 500 nM)”.
Take `C=CC(=O)Nc1cc(Nc2cc(N3OCC[C@@H]3c3cccc(Cl)c3Cl)ncn2)c(OC)cc1-n1cnc(C)c1` [compound 527, N-(5-((6-((R)-3-(2,3-dichlorophenyl)isoxazolidine-2-yl)pyrimidine-4-yl)amino)-4-methoxy-2-(4-methyl-1H-imidazole-1-yl)phenyl)acrylamide]: the “Ba/F3 (NPH) Activity” value is “A (GI50 < 50 nM)”.
For `C=CC(=O)Nc1cc(Nc2cc(N3OCC[C@@H]3c3ccc(Cl)cc3F)ncn2)c(OC)cc1N1CCC(N2C[C@@H](C)O[C@@H](C)C2)CC1` [compound 374, N-(5-((6-((R)-3-(4-chloro-2-fluorophenyl)isoxazolidine-2-yl)pyrimidine-4-yl)amino)-2-(4-((2S,6R)-2,6-dimethylmorpholino)piperidine-1-yl)-4-methoxyphenyl) acrylamide], the “Ba/F3 (NPH) Activity” value is reported as “A (GI50 < 50 nM)”.
Turning to `C=CC(=O)Nc1cc(Nc2cc(N3OCC[C@@H]3c3cccc(C(F)(F)F)c3)ncn2)c(OC)cc1N1CC[C@@H](N(C)C)C1` [compound 505, N-(2-((R)-3-(dimethylamino)pyrolidine-1-yl)-4-methoxy-5-((6-((R)-3-(3-(trifluoromethyl)phenyl)isoxazolidine-2-yl)pyrimidine-4-yl)amino)phenyl)acrylamide], the “Ba/F3 (NPH) Activity” value is given as “A (GI50 < 50 nM)”.
For the compound `C=CC(=O)Nc1cc(Nc2cc(N3OCC[C@@H]3c3cccc(F)c3)ncn2)c(OC)cc1N1CCC(N2CCN(C(C)=O)CC2)CC1` [compound 741, N-(2-(4-(4-acetylpiperazine-1-yl)piperidine-1-yl)-5-((6-((R)-3-(3-fluorophenyl)isoxazolidine-2-yl)pyrimidine-4-yl)amino)-4-methoxyphenyl) acrylamide], the “Ba/F3 (NPH) Activity” value is recorded as “A (GI50 < 50 nM)”.
Take `C=CC(=O)Nc1cc(Nc2cc(N3OCC[C@@H]3c3ccccc3)ncn2)c(OC)cc1N1CCN(CCN(C)C)CC1` [Example 278, N-(2-(4-(2-(dimethylamino)ethyl)piperazine-1-yl)-4-methoxy-5-((6-((R)-3-phenylisoxazolidine-2-yl)pyrimidine-4-yl)amino)phenyl) acrylamide]: the “Ba/F3 (NPH) Activity” value is reported as “A (GI50 < 50 nM)”.
The result for `C=CC(=O)Nc1cc(Nc2cc(N3OCC[C@@H]3c3cccc(C#N)c3)ncn2)c(OC)cc1N1CCC(N2CCN(C(C)C)CC2)CC1` [compound 494, N-(5-((6-((R)-3-(3-cyanophenyl)isoxazolidine-2-yl)pyrimidine-4-yl)amino)-2-(4-(4-isopropylpiperazine-1-yl)piperidine-1-yl)-4-methoxyphenyl) acrylamide] reads “A (GI50 < 50 nM)”; that for `C=CC(=O)Nc1cc(Nc2cc(N3OCC[C@@H]3c3ccccc3)ncn2)c(OC)cc1N1CCC(N2CC3CC2CN3C)CC1` (stereo partly drawn) [Example 52, N-(4-methoxy-2-(4-(5-methyl-2,5-diazabicyclo [2.2.1]heptane-2-yl)piperidine-1-yl)-5-((6-((R)-3-phenylisoxazolidine-2-yl)pyrimidine-1-yl)amino)phenyl) acrylamide], “A (GI50 < 50 nM)”.
The result for `C=CC(=O)Nc1cc(Nc2cc(N3OCC[C@@H]3c3cc(F)ccc3F)ncn2)c(OC)cc1N1CCC(N2CCN(C)[C@H](C)C2)CC1` [compound 851, N-(5-((6-((R)-3-(2,5-difluorophenyl)isoxazolidine-2-yl)pyrimidine-4-yl)amino)-2-(4-((R)-3,4-dimethylpiperazine-1-yl)piperidine-1-yl)-4-methoxyphenyl) acrylamide] reads “A (GI50 < 50 nM)”; that for `C=CC(=O)Nc1cc(Nc2cc(N3OCC[C@@H]3c3cc(F)ccc3F)ncn2)c(OC)cc1N1CCN(CCC)CC1` [compound 300, N-(5-((6-((R)-3-(2,5-difluorophenyl)isoxazolidine-2-yl)pyrimidine-4-yl)amino)-4-methoxy-2-(4-propylpiperazine-1-yl)phenyl)acrylamide], “A (GI50 < 50 nM)”.
For `C=CC(=O)Nc1cc(Nc2cc(N3OCC[C@@H]3c3ccc(F)cc3F)ncn2)c(OC)cc1N1CCC(N(C)CCN(C)C)CC1` [compound 422, N-(5-((6-((R)-3-(2,4-difluorophenyl)isoxazolidine-2-yl)pyrimidine-4-yl)amino)-2-(4-((2-(dimethylamino)ethyl)(methyl)amino)piperidine-1-yl)-4-methoxyphenyl) acrylamide], the “Ba/F3 (NPH) Activity” value is listed as “A (GI50 < 50 nM)”.
On to `C=CC(=O)Nc1cc(Nc2cc(N3OCC[C@@H]3Cc3ccccc3)ncn2)c(OC)cc1N1C[C@H]2C[C@@H]1CO2` [compound 957, N-(5-((6-((S)-3-benzylisoxazolidine-2-yl)pyrimidine-4-yl)amino)-2-((1R,4R)-2-oxa-5-azabicyclo [2.2.1]heptane-5-yl)-4-methoxyphenyl) acrylamide], for which the “Ba/F3 (NPH) Activity” value is listed as “A (GI50 < 50 nM)”.
Regarding `C=CC(=O)Nc1cc(Nc2cc(N3OCC[C@@H]3c3c(F)ccc(F)c3Cl)ncn2)c(OC)cc1N1CCN(C2CC2)CC1` [compound 691, N-(5-((6-((R)-3-(2-chloro-3,6-difluorophenyl)isoxazolidine-2-yl)pyrimidine-4-yl)amino)-2-(4-cyclopropylpiperazine-1-yl)-4-methoxyphenyl) acrylamide], the “Ba/F3 (NPH) Activity” value is listed as “B (50 nM ≤ GI50 < 500 nM)”.
With `C=CC(=O)Nc1cc(Nc2cc(N3OCC[C@@H]3c3cccc(F)c3F)ncn2)c(OC)cc1N1CCC(N2CCN(C3CC3)CC2)CC1` [Example 127, N-(2-(4-(4-cyclopropylpiperazine-1-yl)piperidine-1-yl)-5-((6-((R)-3-(2,3-difluorophenyl)isoxazolidine-2-yl)pyrimidine-4-yl)amino)-4-methoxyphenyl) acrylamide], the “Ba/F3 (NPH) Activity” value is on record as “A (GI50 < 50 nM)”.
